Values quoted from earlier work as cited in patent publication US20210145768A1, “MODULATING IMMUNE RESPONSE VIA TARGETING OF OLFACTORY RECEPTOR ACTIVITY” (La Jolla Institute for Allergy and Immunology, priority 2018, published 2021).

Test system: olfactory receptors
Conditions: odorant (agonist) : olfactory receptor pair; cited from earlier work

| Compound | Olfactory receptor agonized by the odorant (agonist) |
| --- | --- |
| CC1=CCC(CCC(C)CO)C1(C)C (stereo not drawn) [Brahmanol] | OR2AT4 |
| CCCCCOC(=O)CCC [amyl butyrate] | OR2AG1 |
| O=C(O)CCCCCCCC(=O)O [azelaic acid] | Olfr544 (human unknown) |
